Test results: US6436631B1, “Comparative phenotype analysis for assessment of biologically active compounds such as antimicrobials” (priority 2000, dated 2002)

Key:
[1] = system: Saccharomyces cerevisiae (BY4741); assay: EA MicroPlate nutrient stimulation test without methionine (iodo-nitro-tetrazolium violet reduction); assay type: cell-based; settings: 30° C., 2 days, visual
Procedure: In this Example, the response of a yeast to various compounds was tested. The yeast used in these experiments was Saccharomyces cerevisiae (BY4741, obtained from Dr. Mark Johnston, Washington University, St. Louis, Mo.). The genotype of this strain was indicated as being Mat a (i.e., mating type “a”), ura-, his-, leu-, and met-. In these experiments, the ability of this strain to grow in a culture medium without methionine was investigated. Methionine interferes with the ability to test this organism for its utilization of other potential sulfur sources (i.e., if methionine is added to a culture medium the organism preferentially uses it as a sulfur source). The yeast was grown for 48 hours at 30° C. on R2A agar medium (Acumedia). Cells were removed from the agar surface with a sterile cotton swab and suspended at a cell density of 65% transmittance (as read using a BiologTM turbidimeter) in an inoculating fluid containing 50 mM glucose, 0.15 mM uracil, 0.15 mM L-histidine, 0.15 mM L-leucine, 0.15 mM MgCl2, 1.0 mM CaCl2, 2.0 mM NaCl, 1.0 mM KCl, 3.0 mM NH4Cl, 1.0 mM NaH2PO4, 0.1 mM Na2SO4, 0.01% iodo-nitro-tetrazolium violet, 0.01% phytagel (gellan gum), 0.03% pluronic F-68; the pH was adjusted to 6.0. The cell suspension (100 μl/well) was then used to inoculate a BiologTM EA MicroPlateTM, which tests the ability of a cell to be stimulated by a set of 95 different nutrients. The nutrients included within the microarray were: […] One well (A-1) contains no nutrients and is used as a reference (i.e., control) well. After inoculation, the microarray was incubated at 30° C. for 2 days and visually observed.

E. coli (MG1655) = assay: BAC combination (synergy/antagonism) testing in ES1, ES2 and ES3 MicroPlate sensitivity panels, tetrazolium violet; assay type: cell-based; settings: in the presence of 10 μg/ml vancomycin; vancomycin wells at 10, 20, 40 and 80 μg/ml
Procedure: In this Example, the susceptibility of E. coli (MG1655) was tested in the presence of vancomycin (10 μg/ml) or sulfamethoxazole (235 μg/ml) in microarrays containing various additional compounds. The microarrays were present in three Biolog™ sensitivity test panels, referred to as ES1, ES2 and ES3 MicroPlates™. The organisms were added to a sterile aqueous suspension containing 0.40% NaCl, 0.03% pluronic F68, 0.01% phytagel, and 0.01% tetrazolium violet, to a cell density of 85% transmittance (as measured using a BiologTm turbidimeter). The BAC to be tested was added to the suspension just prior to inoculating the organisms (100 μl/well) into the wells of the microarrays. The wells of these ES MicroPlates™ contained a basal broth medium consisting of tryptone (2 g/L), yeast extract (1 g/L), and NaCl (1 g/L). […]

[2] = system: vancomycin-intermediate S. aureus isolates (VISA); settings: VISA isolates identified since 1996 in Europe, Asia and the U.S.; cited from earlier work

N[C@@H](CCC(=O)N[C@@H](CS)C(=O)NCC(=O)O)C(=O)O [glutathione]
stimulation of growth/respiration (pink color) in medium without methionine ([1]; glutathione well (reduced form; 100 μM)): increased pink color

Cc1ncc(CO)c(CO)c1O [pyridoxine]
stimulation of growth/respiration (pink color) in medium without methionine ([1]; pyridoxine well (0.25 μM)): increased pink color

CN[C@H](CC(C)C)C(=O)N[C@H]1C(=O)N[C@@H](CC(N)=O)C(=O)N[C@H]2C(=O)N[C@H]3C(=O)N[C@H](C(=O)N[C@H](C(=O)O)c4cc(O)cc(O)c4-c4cc3ccc4O)[C@H](O)c3ccc(c(Cl)c3)Oc3cc2cc(c3O[C@@H]2O[C@H](CO)[C@@H](O)[C@H](O)[C@H]2O[C@H]2C[C@](C)(N)[C@H](O)[C@H](C)O2)Oc2ccc(cc2Cl)[C@H]1O [vancomycin]
change of sensitivity of E. coli strain to panel compound (E. coli (MG1655)): transient increased sensitivity
vancomycin minimum inhibitory concentration [MIC] [2]: 8 to 16 µg/mL
